{"source": "ChEMBL document CHEMBL4330071", "about": "(Eur J Med Chem, 2019)", "key": {"[1]": {"test_system": "K562", "assay": "Growth inhibition of FLT3 null human K562 cells at 10 uM after 72 hrs by CellTiter-Glo assay relative to control", "type": "functional", "settings": "K562, 72 h, read-out: GI"}, "[2]": {"test_system": "MV4-11", "assay": "Induction of apoptosis in human MV4-11 cells assessed as necrotic cells at 1 uM after 24 hrs by Annexin V-FITC/propidium iodide staining based flow cytometric analysis (reference value: 0%)", "type": "functional"}, "[3]": {"biological_target": "Mitogen-activated protein kinase 1 (Homo sapiens) (UniProt P28482)", "sequence (P28482 whole entry)": "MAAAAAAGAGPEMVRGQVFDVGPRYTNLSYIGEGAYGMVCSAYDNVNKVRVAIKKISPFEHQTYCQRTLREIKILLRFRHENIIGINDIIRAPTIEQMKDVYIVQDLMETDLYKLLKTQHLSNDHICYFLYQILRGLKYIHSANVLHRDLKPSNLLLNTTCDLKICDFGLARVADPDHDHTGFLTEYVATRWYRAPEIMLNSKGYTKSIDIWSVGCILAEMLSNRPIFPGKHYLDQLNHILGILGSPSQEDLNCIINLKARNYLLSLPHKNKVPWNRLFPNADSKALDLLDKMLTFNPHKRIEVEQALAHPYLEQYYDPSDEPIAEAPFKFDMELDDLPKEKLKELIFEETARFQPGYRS", "assay": "Inhibition of human ERK2 assessed as residual activity at 10 uM using MBP as substrate preincubated for 20 mins followed by [gamma-33P]-ATP addition and measured after 120 mins by Hotspot assay relative to control"}, "[4]": {"biological_target": "Tyrosine-protein kinase ABL1 (Homo sapiens, UniProt P00519, Q252H)", "assay": "Binding affinity to human non-phosphorylated ABL1 Q252H mutant (S229 to K512 residues) expressed in mammalian expression system after 60 mins by Kinomescan method"}, "[5]": {"test_system": "SMMC-7721", "assay": "Growth inhibition of human SMMC7721 cells at 10 uM after 72 hrs by CellTiter-Glo assay relative to control", "type": "functional", "settings": "SMMC-7721, 72 h, read-out: GI"}, "[6]": {"biological_target": "T1, Mast/stem cell growth factor receptor Kit (Homo sapiens, UniProt P10721)", "T1 sequence (P10721 whole entry)": "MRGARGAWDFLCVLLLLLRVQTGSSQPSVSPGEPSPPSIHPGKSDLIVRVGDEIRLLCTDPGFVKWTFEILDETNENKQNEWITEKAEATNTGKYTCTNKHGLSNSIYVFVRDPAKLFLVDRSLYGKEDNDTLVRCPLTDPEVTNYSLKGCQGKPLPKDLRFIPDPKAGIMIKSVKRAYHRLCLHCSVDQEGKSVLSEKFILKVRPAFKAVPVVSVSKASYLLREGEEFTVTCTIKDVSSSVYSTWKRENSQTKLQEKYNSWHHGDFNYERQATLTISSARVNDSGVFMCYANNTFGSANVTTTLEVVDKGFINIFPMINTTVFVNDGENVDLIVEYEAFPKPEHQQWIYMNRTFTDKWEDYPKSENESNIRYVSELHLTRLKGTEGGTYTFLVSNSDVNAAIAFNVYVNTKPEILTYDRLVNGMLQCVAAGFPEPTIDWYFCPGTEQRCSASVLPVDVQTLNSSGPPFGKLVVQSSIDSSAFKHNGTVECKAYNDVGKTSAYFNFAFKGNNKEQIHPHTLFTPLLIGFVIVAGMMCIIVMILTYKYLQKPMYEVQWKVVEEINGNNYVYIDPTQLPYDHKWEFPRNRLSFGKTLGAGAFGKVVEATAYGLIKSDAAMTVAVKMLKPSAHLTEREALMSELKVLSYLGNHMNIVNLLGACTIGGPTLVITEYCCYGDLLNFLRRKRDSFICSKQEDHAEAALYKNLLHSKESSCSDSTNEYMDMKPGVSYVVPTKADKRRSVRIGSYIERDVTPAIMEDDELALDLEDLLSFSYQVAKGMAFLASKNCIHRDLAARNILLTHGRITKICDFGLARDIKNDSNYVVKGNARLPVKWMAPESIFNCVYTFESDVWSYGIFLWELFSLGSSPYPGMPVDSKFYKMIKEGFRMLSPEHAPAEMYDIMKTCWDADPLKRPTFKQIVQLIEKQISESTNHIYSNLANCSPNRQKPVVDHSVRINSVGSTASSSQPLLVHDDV", "assay": "Inhibition of human c-KIT assessed as residual activity at 10 uM using poly[Glu:Tyr] (4:1) as substrate preincubated for 20 mins followed by [gamma-33P]-ATP addition and measured after 120 mins by Hotspot assay relative to control"}, "[7]": {"biological_target": "Tyrosine-protein kinase ABL1 (Homo sapiens, UniProt P00519, H396P)", "assay": "Binding affinity to human phosphorylated ABL1 H396P mutant (S229 to K512 residues) expressed in mammalian expression system after 60 mins by Kinomescan method"}, "[8]": {"test_system": "MV4-11", "assay": "Induction of apoptosis in human MV4-11 cells assessed as late apoptotic cells at 0.5 uM after 24 hrs by Annexin V-FITC/propidium iodide staining based flow cytometric analysis (reference value: 1.42%)", "type": "functional"}, "[9]": {"biological_target": "Tyrosine-protein kinase ABL1 (Homo sapiens, UniProt P00519, F317I)", "assay": "Binding affinity to human non-phosphorylated ABL1 F317I mutant (S229 to K512 residues) expressed in mammalian expression system after 60 mins by Kinomescan method"}, "[10]": {"test_system": "MCF7", "assay": "Growth inhibition of human MCF7 cells at 10 uM after 72 hrs by CellTiter-Glo assay relative to control", "type": "functional", "settings": "MCF7, 72 h, read-out: GI"}, "[11]": {"test_system": "MV4-11", "assay": "Induction of apoptosis in human MV4-11 cells assessed as late apoptotic cells at 0.2 uM after 24 hrs by Annexin V-FITC/propidium iodide staining based flow cytometric analysis (reference value: 1.42%)", "type": "functional"}, "[12]": {"biological_target": "T2, Tyrosine-protein kinase BTK (Homo sapiens, UniProt Q06187)", "T2 sequence (Q06187 whole entry)": "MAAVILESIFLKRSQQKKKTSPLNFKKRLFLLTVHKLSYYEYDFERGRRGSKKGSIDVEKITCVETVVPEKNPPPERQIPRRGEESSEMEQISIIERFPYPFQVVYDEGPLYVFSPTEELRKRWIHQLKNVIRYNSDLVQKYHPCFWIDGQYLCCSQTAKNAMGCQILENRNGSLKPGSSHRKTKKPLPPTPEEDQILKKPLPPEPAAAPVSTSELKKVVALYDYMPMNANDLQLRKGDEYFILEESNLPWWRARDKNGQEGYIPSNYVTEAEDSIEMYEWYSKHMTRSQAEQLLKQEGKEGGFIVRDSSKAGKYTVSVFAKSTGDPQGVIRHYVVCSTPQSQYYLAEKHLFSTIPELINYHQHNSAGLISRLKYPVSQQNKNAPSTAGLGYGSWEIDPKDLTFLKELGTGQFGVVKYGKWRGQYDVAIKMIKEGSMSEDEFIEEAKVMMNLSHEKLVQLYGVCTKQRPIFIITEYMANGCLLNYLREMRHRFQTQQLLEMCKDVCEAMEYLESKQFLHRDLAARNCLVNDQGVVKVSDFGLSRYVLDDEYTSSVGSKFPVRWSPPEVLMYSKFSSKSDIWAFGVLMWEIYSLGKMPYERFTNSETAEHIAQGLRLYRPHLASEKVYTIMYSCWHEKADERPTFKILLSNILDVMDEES", "assay": "Inhibition of human BTK assessed as residual activity at 10 uM using KVEKIGEGTYGVVYK as substrate preincubated for 20 mins followed by [gamma-33P]-ATP addition and measured after 120 mins by Hotspot assay relative to control"}, "[13]": {"test_system": "MOLM-13", "assay": "Growth inhibition of human MOLM13 cells harboring FLT3 ITD mutant at 10 uM after 72 hrs by CellTiter-Glo assay relative to control", "type": "functional", "settings": "MOLM-13, 72 h, read-out: GI"}, "[14]": {"test_system": "MV4-11", "assay": "Induction of apoptosis in human MV4-11 cells assessed as necrotic cells at 0.5 uM after 24 hrs by Annexin V-FITC/propidium iodide staining based flow cytometric analysis (reference value: 0%)", "type": "functional"}, "[15]": {"biological_target": "Tyrosine-protein kinase ABL1 (Homo sapiens, UniProt P00519, F317L)", "assay": "Binding affinity to human phosphorylated ABL1 F317L mutant (S229 to K512 residues) expressed in mammalian expression system after 60 mins by Kinomescan method"}, "[16]": {"biological_target": "Dual specificity mitogen-activated protein kinase kinase 1 (Homo sapiens) (UniProt Q02750)", "assay": "Inhibition of human MEK1 assessed as residual activity at 10 uM using ERK2 as substrate preincubated for 20 mins followed by [gamma-33P]-ATP addition and measured after 120 mins by Hotspot assay relative to control"}, "[17]": {"test_system": "RS4-11", "assay": "Growth inhibition of human RS4:11 cells harboring WT FLT3 at 10 uM after 72 hrs by CellTiter-Glo assay relative to control", "type": "functional", "settings": "RS4-11, 72 h, read-out: GI"}, "[18]": {"biological_target": "Discoidin domain-containing receptor 2 (Homo sapiens, UniProt Q16832)", "sequence (Q16832 whole entry, the tested form may be a part)": "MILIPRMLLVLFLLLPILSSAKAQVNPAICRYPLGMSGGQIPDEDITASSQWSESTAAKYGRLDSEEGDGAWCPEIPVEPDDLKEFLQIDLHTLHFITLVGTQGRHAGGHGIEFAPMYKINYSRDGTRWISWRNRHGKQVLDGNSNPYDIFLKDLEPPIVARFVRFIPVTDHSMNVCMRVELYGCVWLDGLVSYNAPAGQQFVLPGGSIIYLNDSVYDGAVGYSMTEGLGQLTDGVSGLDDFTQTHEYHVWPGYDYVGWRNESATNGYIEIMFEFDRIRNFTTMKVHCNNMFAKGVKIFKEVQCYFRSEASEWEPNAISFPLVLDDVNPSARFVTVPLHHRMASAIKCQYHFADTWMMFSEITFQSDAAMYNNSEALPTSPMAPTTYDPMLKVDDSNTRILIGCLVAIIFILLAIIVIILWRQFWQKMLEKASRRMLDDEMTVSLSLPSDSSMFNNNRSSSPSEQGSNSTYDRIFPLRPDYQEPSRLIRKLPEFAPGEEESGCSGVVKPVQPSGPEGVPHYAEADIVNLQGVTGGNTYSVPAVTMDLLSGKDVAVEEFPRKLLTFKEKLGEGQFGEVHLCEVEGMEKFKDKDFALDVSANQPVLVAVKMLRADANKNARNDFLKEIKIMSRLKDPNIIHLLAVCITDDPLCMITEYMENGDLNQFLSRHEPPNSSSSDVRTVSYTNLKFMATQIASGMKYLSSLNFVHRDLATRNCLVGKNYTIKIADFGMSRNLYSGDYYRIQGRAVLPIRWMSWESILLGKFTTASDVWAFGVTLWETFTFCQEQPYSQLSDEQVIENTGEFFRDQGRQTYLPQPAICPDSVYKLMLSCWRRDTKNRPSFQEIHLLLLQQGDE", "assay": "Inhibition of human DDR2 using KKSRGDYMTMQIG as substrate preincubated for 20 mins followed by [gamma-33P]-ATP addition and measured after 120 mins by Hotspot assay"}, "[19]": {"biological_target": "T2, Tyrosine-protein kinase BTK", "assay": "Inhibition of human BTK using KVEKIGEGTYGVVYK as substrate preincubated for 20 mins followed by [gamma-33P]-ATP addition and measured after 120 mins by Hotspot assay"}, "[20]": {"biological_target": "Discoidin domain-containing receptor 2 (Homo sapiens) (UniProt Q16832)", "sequence (Q16832 whole entry, the tested form may be a part)": "as above", "assay": "Inhibition of human DDR2 assessed as residual activity at 10 uM using KKSRGDYMTMQIG as substrate preincubated for 20 mins followed by [gamma-33P]-ATP addition and measured after 120 mins by Hotspot assay relative to control"}, "[21]": {"test_system": "MV4-11", "assay": "Induction of apoptosis in human MV4-11 cells assessed as late apoptotic cells at 0.02 uM after 24 hrs by Annexin V-FITC/propidium iodide staining based flow cytometric analysis (reference value: 1.42%)", "type": "functional"}, "[22]": {"biological_target": "Hepatocyte growth factor receptor (Homo sapiens) (UniProt P08581)", "sequence (P08581 whole entry)": "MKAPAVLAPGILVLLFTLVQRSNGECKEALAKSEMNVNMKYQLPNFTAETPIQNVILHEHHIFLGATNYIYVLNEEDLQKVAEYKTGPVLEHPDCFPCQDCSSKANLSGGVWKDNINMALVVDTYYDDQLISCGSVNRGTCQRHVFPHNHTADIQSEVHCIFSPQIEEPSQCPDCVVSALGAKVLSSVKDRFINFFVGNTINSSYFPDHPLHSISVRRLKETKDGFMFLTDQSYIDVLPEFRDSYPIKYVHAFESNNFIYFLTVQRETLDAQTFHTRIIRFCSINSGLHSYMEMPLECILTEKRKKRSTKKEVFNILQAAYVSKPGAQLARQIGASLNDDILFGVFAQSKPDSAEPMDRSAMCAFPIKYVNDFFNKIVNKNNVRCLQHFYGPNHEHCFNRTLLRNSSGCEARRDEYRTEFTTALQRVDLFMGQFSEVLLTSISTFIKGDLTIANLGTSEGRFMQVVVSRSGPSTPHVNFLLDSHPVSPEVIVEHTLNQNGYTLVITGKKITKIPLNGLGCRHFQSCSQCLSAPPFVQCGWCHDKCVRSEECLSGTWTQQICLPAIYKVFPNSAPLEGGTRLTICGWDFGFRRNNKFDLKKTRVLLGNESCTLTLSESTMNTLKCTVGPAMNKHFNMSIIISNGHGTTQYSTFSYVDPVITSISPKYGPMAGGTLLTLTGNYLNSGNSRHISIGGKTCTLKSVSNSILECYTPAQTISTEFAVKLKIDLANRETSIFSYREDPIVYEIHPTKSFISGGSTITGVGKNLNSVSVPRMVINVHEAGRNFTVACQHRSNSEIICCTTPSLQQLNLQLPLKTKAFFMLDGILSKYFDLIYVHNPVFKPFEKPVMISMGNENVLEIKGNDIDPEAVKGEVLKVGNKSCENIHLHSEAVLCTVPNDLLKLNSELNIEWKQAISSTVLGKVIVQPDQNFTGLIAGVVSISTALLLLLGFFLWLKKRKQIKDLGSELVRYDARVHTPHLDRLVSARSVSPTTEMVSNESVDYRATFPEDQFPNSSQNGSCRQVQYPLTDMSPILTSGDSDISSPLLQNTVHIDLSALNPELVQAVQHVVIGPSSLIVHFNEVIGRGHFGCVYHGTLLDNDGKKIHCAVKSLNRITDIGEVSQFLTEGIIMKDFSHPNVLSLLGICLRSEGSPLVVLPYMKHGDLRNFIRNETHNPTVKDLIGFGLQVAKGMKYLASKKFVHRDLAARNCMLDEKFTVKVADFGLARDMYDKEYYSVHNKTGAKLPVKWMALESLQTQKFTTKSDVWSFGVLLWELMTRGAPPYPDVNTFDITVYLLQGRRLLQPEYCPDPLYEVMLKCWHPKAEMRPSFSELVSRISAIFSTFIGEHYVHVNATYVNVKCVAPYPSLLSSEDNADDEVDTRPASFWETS", "assay": "Inhibition of human c-MET assessed as residual activity at 10 uM using KKKSPGEYVNIEFG as substrate preincubated for 20 mins followed by [gamma-33P]-ATP addition and measured after 120 mins by Hotspot assay relative to control"}, "[23]": {"test_system": "MV4-11", "assay": "Induction of apoptosis in human MV4-11 cells assessed as necrotic cells at 0.02 uM after 24 hrs by Annexin V-FITC/propidium iodide staining based flow cytometric analysis (reference value: 0%)", "type": "functional"}, "[24]": {"biological_target": "T1, Mast/stem cell growth factor receptor Kit", "assay": "Binding affinity to wild-type human partial length KIT (I571 to D952 residues) expressed in bacterial expression system after 60 mins by Kinomescan method"}, "[25]": {"biological_target": "Cyclin-dependent kinase 5/CDK5 activator 1 (Homo sapiens) (UniProt Q00535+Q15078)", "assay": "Inhibition of human CDK5/p25 assessed as residual activity at 10 uM using histone H1 as substrate preincubated for 20 mins followed by [gamma-33P]-ATP addition and measured after 120 mins by Hotspot assay relative to control", "type": "protein-complex assay"}, "[26]": {"biological_target": "Cyclin-dependent kinase 7/ cyclin H (Homo sapiens, UniProt P50613)", "sequence (P51946 whole entry)": "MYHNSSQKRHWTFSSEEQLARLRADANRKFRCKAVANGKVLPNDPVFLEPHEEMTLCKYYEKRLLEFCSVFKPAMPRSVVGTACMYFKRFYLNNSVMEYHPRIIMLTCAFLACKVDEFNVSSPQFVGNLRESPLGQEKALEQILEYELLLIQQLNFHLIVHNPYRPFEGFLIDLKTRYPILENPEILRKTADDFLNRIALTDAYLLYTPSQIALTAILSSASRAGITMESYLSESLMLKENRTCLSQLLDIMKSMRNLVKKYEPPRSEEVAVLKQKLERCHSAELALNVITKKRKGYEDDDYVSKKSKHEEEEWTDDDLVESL", "sequence (P50613 whole entry)": "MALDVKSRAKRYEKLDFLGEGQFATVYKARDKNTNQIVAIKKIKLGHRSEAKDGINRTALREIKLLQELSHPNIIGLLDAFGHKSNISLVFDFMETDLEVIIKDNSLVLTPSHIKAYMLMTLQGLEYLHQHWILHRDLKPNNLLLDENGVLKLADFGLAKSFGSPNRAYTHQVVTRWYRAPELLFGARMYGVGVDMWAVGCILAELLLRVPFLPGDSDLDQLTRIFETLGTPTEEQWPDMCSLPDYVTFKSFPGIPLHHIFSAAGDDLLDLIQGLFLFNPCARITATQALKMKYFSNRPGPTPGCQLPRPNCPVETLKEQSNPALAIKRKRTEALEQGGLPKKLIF", "assay": "Inhibition of human CDK7/cyclin-H using MBP as substrate preincubated for 20 mins followed by [gamma-33P]-ATP addition and measured after 120 mins by Hotspot assay", "type": "protein-complex assay"}, "[27]": {"test_system": "MV4-11", "assay": "Cell cycle arrest in human MV4-11 cells assessed as accumulation at G2/M phase after 24 hrs by ribonuclease/propidium iodide staining based flow cytometric analysis", "type": "functional"}}}
{"smiles": "CN1CCC(Nc2ccc(C(=O)Nc3cc(-c4cc(C#N)cs4)n[nH]3)cc2)CC1", "values": [{"measurement": "inhibition of growth at 10 µM", "setting": "[1]", "value": 1.3, "unit": "%"}, {"measurement": "Activity", "setting": "[2]", "value": 6.35, "unit": "%"}, {"measurement": "Activity", "setting": "[3]", "value": 102, "unit": "%"}, {"measurement": "Kd", "setting": "[4]", "value": 350, "unit": "nM"}, {"measurement": "inhibition of growth at 10 µM", "setting": "[5]", "value": 1.47, "unit": "%"}, {"measurement": "Activity", "setting": "[6]", "value": 14.4, "unit": "%"}, {"measurement": "Kd", "setting": "[7]", "value": 390, "unit": "nM"}, {"measurement": "Activity", "setting": "[8]", "value": 26.68, "unit": "%"}, {"measurement": "Kd", "setting": "[9]", "value": "> 10000", "unit": "nM"}, {"measurement": "inhibition of growth at 10 µM", "setting": "[10]", "value": 0.83, "unit": "%"}, {"measurement": "Activity", "setting": "[11]", "value": 21.77, "unit": "%"}, {"measurement": "Activity", "setting": "[12]", "value": 12.9, "unit": "%"}, {"measurement": "inhibition of growth at 10 µM", "setting": "[13]", "value": 92.1, "unit": "%"}, {"measurement": "Activity", "setting": "[14]", "value": 4.89, "unit": "%"}, {"measurement": "Kd", "setting": "[15]", "value": 460, "unit": "nM"}, {"measurement": "Activity", "setting": "[16]", "value": 91.9, "unit": "%"}, {"measurement": "inhibition of growth at 10 µM", "setting": "[17]", "value": 1.33, "unit": "%"}, {"measurement": "IC50", "setting": "[18]", "value": 3470, "unit": "nM"}, {"measurement": "IC50", "setting": "[19]; read-out: IC50", "value": 1640, "unit": "nM"}, {"measurement": "IC50", "setting": "[19]; read-out: pIC50 (converted)", "value": 1580, "unit": "nM"}, {"measurement": "Activity", "setting": "[20]", "value": 20.6, "unit": "%"}, {"measurement": "Activity", "setting": "[21]", "value": 11.3, "unit": "%"}, {"measurement": "Activity", "setting": "[22]", "value": 74.5, "unit": "%"}, {"measurement": "Activity", "setting": "[23]", "value": 3.01, "unit": "%"}, {"measurement": "Kd", "setting": "[24]", "value": 2.2, "unit": "nM"}, {"measurement": "Activity", "setting": "[25]", "value": 60.4, "unit": "%"}, {"measurement": "IC50", "setting": "[26]", "value": 7910, "unit": "nM"}, {"measurement": "Activity", "setting": "[27]", "value": "Dose-dependent effect"}]}
